Test results published in patent US5633274A, “Cancer treatments” (President and Fellows of Harvard College, priority 1993, dated 1997).
Entries after “also recorded” stand apart in the source; their conditions may differ. Like-named read-outs stand apart in the source and are kept apart here.

Key:
nonprostate cancer cells = test: Proliferation of nonprostate cancer cells (general statements); format: cell-based; settings: for inhibition of (nonprostate cancer) cell proliferation: other channel and transport inhibitors
[1] = system: primary human sarcoma cells; test: bFGF-stimulated DNA synthesis in primary human sarcoma cells; format: cell-based; settings: for inhibition of DNA synthesis by other inhibitors of the Ca++ activated K channel: toxins, concentration not given
Procedure: (§1) Primary human sarcomas rabdomyosarcoma and liposarcoma: Fresh human cancer specimens were obtained from human subjects undergoing a surgical procedure; the tumors were treated with colagenase to dissociate the cells which were then seeded at low density (1×10^5 in small culture chambers containing hybridomas grade culture medium supplemented with 5% fetal calf serum; after 12 hrs., when the cells were attached to the surface of the culture chambers, CLT (10 μM) or carrier (ethanol) were added *triplicate chambers). After 48 hours cell growth was assessed by optic miscroscopy calculating the surface of the culture flask covered by the cell monolayer.
Other antimycotics were tested for their inhibition of bFGF-stimulated DNA synthesis in the primary human sarcoma cells of Example 3.

[2] = molecular target: T1, Ca++ activated K channel of human erythrocytes (Homo sapiens, UniProt O15554); test: Inhibition of Ca++ activated K channel of human erythrocytes (86Rb influx, K efflux); format: cell-based
T1 construct: Preparation of Human Red Blood Cells: Blood is collected in heparinized tubes; endogenous in cells; host or cells: washed human erythrocytes (red blood cells) from heparinized blood
Procedure: Preparation of Human Red Blood Cells: Blood is collected in heparinized tubes and centrifuged in a Sorvall centrifuge (RB 5B, Du Pont Instruments,Newtown, Conn.) at 5° C. for 10 minutes at 3000 g. Plasma and buffy coat are carefully removed and the cells washed four times with a washing solution containing 150 mM choline chloride (Sigma Co), 1 mM MgC12 (Sigma Co), 10 mM Tris-MOPS (Sigma, Ca), pH 7.4 at 4° C.(CWS). An aliquot of cells is then suspended in an approximately equal volume of CWS, and from this original cell suspension hematocrit (Hct) and hemoglobin (optical density at 540 nm) are determined.
Methods to Test Inhibitors of the Ca^++ Activated K: To test inhibitors of the Ca^++ activated K channel, the channel is activated using the calcium ionophore A23187 (Chalbiochem).
By Atomic Absorption Spectrometry: Washed human erythrocyte are suspended at an hematocrit≈1% in CWS containing 0.150 mM CaCl2 (Sigma Co) Aliquots of 1 ml are removed at 0, 3 and 5 minutes, layered on top of 0.3 ml of the oil n-butyl phthalate (Fair Lane, N.J.) placed in an Eppendorf microtube (Fisher) and then centrifuged in a micro centrifuge for 20 seconds. At time 5.30 minutes, ionophore A23187 (1 μM final concentration) is added and samples removed and spin down through phthalate at times 6, 7, 8 and 9 minutes. The supernatant on top of the oil layer is removed and its K+ concentration is measured by atomic absorption spectrometry using a Perking Elmer model 5000 spectrometer (Perkin Elmer Corp., Norwolk, Conn.). The efflux of K+ (mmol/l cells/h) in the absence and presence of the inhibitor is calculated from the slope of the curves relating the K+ concentration in the supernatants (mmol/l cells) vs. time (min.).
By radioisotopic measurement of ^86 Rb influx. The incubation medium is the same but contains 2 mM KCl and 1 μCi/ml of the radioactive tracer ^86 Rb. After spinning the samples through the phthalate layer, the tubes are rapidly frozen (-80° C.) by immersion in methanol-dry ice, the tips of the tubes containing the packed red cells cut, and counted in a Packard Gamma Counter.
The inhibitory effect of (CLT) on the Ca^++ activated K channel of human erythrocytes was assessed in the presence of 60 μmol A23187/L cell and 100 μMCaCl2.
Other antimycotics were tested for their inhibition of the Ca++ activated 86Rb influx human erythrocytes.

17-hydroxylase = settings: background; cited from earlier work
[3] = system: 21- and/or 11-hydroxylase; settings: background; cited from earlier work
17-20 desmolase = settings: background; cited from earlier work
[4] = system: testicular and adrenal synthesis of steroid hormones, including testosterone; settings: cited from earlier work
[5] = system: human lung adenocarcinoma cells; test: DNA synthesis ([3H]thymidine incorporation) in human lung adenocarcinoma cells; format: cell-based; settings: FIG. 1
Procedure: (§2) The inhibitory effect of clotrimazol (CLT) on cell proliferation was assessed in cancerous cells. Quiescent human colon adenocarcinoma and human lung adenocarcinoma cells were stimulated with 5% fetal calf serum and synthesis of DNA was assessed by the incorporation of [3H]thymidine measures 24 hours later. […] The effect was not due to a toxic, non-specific, effect because it was reversed by removing CLT and re-stimulating the cells with 5% fetal calf serum (FIG. 1).

[6] = system: rat vascular smooth muscle cells
Procedure: (§4) DNA synthesis assessed by the uptake of [3H]thymidine: Cells are grown in either 48 or 96 wells plates (Costar, Cambridge, Mass.) at 10^4 and 0.8 10^3 cells per well, respectively, and grown in Dubelcco's modified Eagle's medium (DME, Gibco, Grand Island, N.Y.) supplemented with 10% heat-inactivated calf serum; they are kept at 37° C. in 5% CO2. When they reach confluence, usually between 3 and 4 days, the medium is replaced with DME 0.5% serum to make them quiescent, and mitogenesis assays are performed 24 hours later.
(§5) Quiescent cells are exposed to a mitogenic stimulus, such as 10% serum, PDGF (Sigma Co. St. Louis, Mo.), bFGF (Upstate Biotechnologies, Lake Placid, N.Y.), or other appropriate mitogen according to the cell line, and 3 hours later 1 μCi/ml of [3H]thymidine (Dupont, Billerica, Mass.) is added to the wells, and the cells maintained at 37° C./5% CO2 for additional 21 hours. Then the cells are washed 3 times with DME medium and the acid-precipitable radioactivity is extracted with cold 10% TCA (Sigma, Co). After neutralization with 0.3N NaOH (Sigma Co.), aliquots are counted in a Packard Tri-Carb Scintillation counter (Packard Instrument, Downer's Grove, Ill.).
Cells were stimulated using 5 μM bFGF.

[7] = system: Primary human sarcomas rabdomyosarcoma; test: Cell growth of primary human rabdomyosarcoma (surface covered by monolayer); format: cell-based; settings: 10 μM CLT; 48 hours
Procedure: (§3) Measurement of cell density in culture plates: Cells of a specific test cell line are seeded at precisely the same low density in culture plates and incubated for approximately 12 hours in DME 10% serum, or other culture medium depending on the cell line tested. […] Alternatively, the cells can be detached from the plate by incubation with trypsin (Sigma, Co.) […] in ethylene diaminotetraacetic acid (ECTA; Sigma, Co); then the cells are counted in an hemocytometer chamber (Fisher, Pittsburgh, Pa.).
as §1

adenocarcinomas in rats = test: Inhibition of tumor growth in vivo (adenocarcinomas in rats); set-up: species or system rat
Procedure: The efficacy of CLT was studied in inhibiting the growth of adenocarcinomas in rats. […] Tumors were measured by size and weight on a daily basis, and growth rates were calculated. Nonparametric statistical comparisons were made among the median growth rates of all of the treatment groups.

[8] = system: Primary human sarcomas liposarcoma; test: Cell growth of primary human liposarcoma (surface covered by monolayer); format: cell-based; settings: 10 μM CLT; 48 hours
Procedure: as §3, §1

[9] = system: human colon adenocarcinoma cells; test: DNA synthesis ([3H]thymidine incorporation) in human colon adenocarcinoma cells; format: cell-based; settings: FIG. 1
Procedure: as §2

[10] = system: rat vascular smooth muscle cells; test: cells; settings: read-out: inhibition of DNA synthesis
Procedure: as §4, §5
Cells were stimulated using 5 μM bFGF.

[11] = 10 μM CLT, 5% fetal calf serum stimulation, 24 hours
[12] = re-stimulated with 5% fetal calf serum
[13] = 60 μmol A23187/L cell and 100 μM CaCl2
[14] = other antimycotics, human erythrocytes, FIG. 4

Q: For `N=C(N)NC(=O)c1nc(Cl)c(N)nc1N` [amiloride], which “inhibition of (nonprostate cancer) cell proliferation” value (nonprostate cancer cells) is on record?
A: do not inhibit cell proliferation

Q: Which results are given for `Clc1ccc(COC(Cn2ccnc2)c2ccc(Cl)cc2Cl)cc1` (stereo not shown) [econazole]?
A: inhibition of bFGF-stimulated DNA synthesis ([1]; 10 μM, FIG. 3): inhibited DNA synthesis; order of inhibitory potency (DNA synthesis) ([1]; 10 μM, FIG. 3): ECZ more potent than MCZ; order of inhibitory potency (Ca++ activated 86Rb influx) ([2]; human erythrocytes, FIG. 4): both of these were more than econazole

Q: What does the source list for `CC(=O)N1CCN(c2ccc(OCC3COC(Cn4ccnc4)(c4ccc(Cl)cc4Cl)O3)cc2)CC1` (stereo not shown) [ketoconazole]?
A: blockade of 17-hydroxylase (17-hydroxylase): partial blockade; inhibition of 21- and/or 11-hydroxylase [3]: marked inhibition; inhibition of 17-20 desmolase (17-20 desmolase): inhibition; inhibition of growth/proliferation of nonprostate cancer cells (nonprostate cancer cells; nonprostate cancer cells tested by the applicants): ineffective; also recorded: not useful for inhibiting proliferation; inhibition of testicular and adrenal synthesis of steroid hormones, including testosterone ([4]; in high doses): inhibits testicular and adrenal synthesis of steroid hormones, including testosterone; plasma testosterone ([4]; prostate cancer treatment): reduces plasma testosterone to castration levels

Q: What does the source list for `Clc1ccccc1C(c1ccccc1)(c1ccccc1)n1ccnc1` [clotrimazole]?
A: order of inhibitory potency (DNA synthesis) [1]: CLT more potent than ECZ; inhibition of bFGF-stimulated DNA synthesis ([1]; 10 µM): inhibited DNA synthesis; inhibition of DNA synthesis [5, 11]: completely inhibited; reversibility of effect on removing CLT and re-stimulating (not due to a toxic, non-specific effect) [5, 12]: reversed; dose dependence of inhibition of DNA synthesis ([6]; 0.001 μM, 0.1 μM, 1 μM and 10 μM): dose dependent; inhibition of DNA synthesis ([6]; 10 μM, bFGF stimulation): complete inhibition; growth of sarcoma cells [7]: completely arrested; inhibition of growth [7]: More than 95%; median tumor growth rate (adenocarcinomas in rats; 100 mg/kg by mouth in peanut oil): significant reduction; median tumor growth rate (adenocarcinomas in rats; 200 mg/kg by mouth in peanut oil): significant reduction; inhibition of Ca++ activated 86Rb influx [2, 13]: markedly inhibited; inhibition of K efflux [2, 13]: markedly inhibited; order of inhibitory potency (Ca++ activated 86Rb influx) ([2]; human erythrocytes, FIG. 4): clotrimazole more than miconazole; growth of sarcoma cells [8]: completely arrested; inhibition of growth [8]: More than 95%; inhibition of DNA synthesis [9, 11]: completely inhibited; reversibility of effect on removing CLT and re-stimulating (not due to a toxic, non-specific effect) [9, 12]: reversed; inhibition at 1 µM [10]: 45%

Q: With `Clc1ccc(COC(Cn2ccnc2)c2ccc(Cl)cc2Cl)c(Cl)c1` (stereo not shown) [miconazole] as the molecule, how does the “inhibition of bFGF-stimulated DNA synthesis” value ([1]; 10 μM, FIG. 3) read?
A: inhibited DNA synthesis

Q: What about the “order of inhibitory potency (DNA synthesis)” value ([1]; 10 μM, FIG. 3) of the same molecule?
A: ECZ more potent than MCZ

Q: And the “order of inhibitory potency (Ca++ activated 86Rb influx)” value ([2]; human erythrocytes, FIG. 4)?
A: clotrimazole more than miconazole; and both of these were more than econazole

Q: With “kaliotoxin: specific inhibitor of the Ca++ activated potassium channel” as the molecule, how does the “inhibition of DNA synthesis by other inhibitors of the Ca++ activated K channel” value [1] read?
A: failed to inhibit DNA synthesis

Q: What about the “inhibition of (nonprostate cancer) cell proliferation” value (nonprostate cancer cells) of the same molecule?
A: do not inhibit proliferation

Q: For `Cc1ncc([N+](=O)[O-])n1CCO` [metronidazole], which “inhibition of Ca++ activated 86Rb influx” value [2, 14] is on record?
A: only marginal

Q: Which “inhibition of Ca++ activated 86Rb influx” value [2, 14] does the source give for `Cc1ncc([N+](=O)[O-])n1CC(O)CCl` (stereo not shown) [ornidazole] here?
A: no inhibition

Q: For `OC(Cn1cncn1)(Cn1cncn1)c1ccc(F)cc1F` [fluconazole], which “inhibition of Ca++ activated 86Rb influx” value [2, 14] is on record?
A: no inhibition

Q: With charybdotoxin as the molecule, how does the “inhibition of DNA synthesis by other inhibitors of the Ca++ activated K channel” value [1] read?
A: failed to inhibit DNA synthesis

Q: And the “inhibition of (nonprostate cancer) cell proliferation” value (nonprostate cancer cells)?
A: do not inhibit proliferation

Q: For `C[C@@H]1O[C@@H](O[C@H]2C[C@@H](O)[C@]3(CO)[C@H]4[C@H](O)C[C@]5(C)[C@@H](C6=CC(=O)OC6)CC[C@]5(O)[C@@H]4CC[C@]3(O)C2)[C@H](O)[C@H](O)[C@H]1O` [ouabain], which “inhibition of (nonprostate cancer) cell proliferation” value (nonprostate cancer cells) is on record?
A: do not inhibit cell proliferation

Q: With `CCS(=O)(=O)CCn1c([N+](=O)[O-])cnc1C` [tinidazole] as the molecule, how does the “inhibition of Ca++ activated 86Rb influx” value [2, 14] read?
A: no inhibition
